The test system of series [1] is wild-type H460 lung cancer cells. The series is described as follows: Anti-proliferative IC50 assay, wild-type H460. It counts as cell-based, human. Particulars: for IC50: Homo sapiens. On the procedure:
Four hundred cells were seeded in a volume of 100 μL in each well of a 96-well plate. The cells were left in a humidified incubator (37° C., 5% CO2) for 2 hours in order to enable attachment to the surface of the wells prior to compound addition. All compounds were prepared as stocks in DMSO and stored at −80° C. Frozen stocks of compounds were thawed immediately prior to addition to cells. Working solutions of each compound were made in α-MEM+5% FBS (v/v) at 3 times the required final concentration for the top well. The final concentration of DMSO in the α-MEM solution was ensured to not exceed 1% of the total volume. 50 μL of the working solution was added to the top wells (in duplicates) and gently mixed. The solubility of some compounds precluded the working solution in α-MEM to be 3 times the desired top well concentration. […] A 3-fold serial dilution was carried out along the plate starting from the top well. The first column of wells on the plate served as blanks (containing α-MEM+FBS) and the second column served as control wells (containing cells with no compound added). Following compound addition, the plates were incubated for 4 hours in a humidified incubator (37° C., 5% CO2).
Following the 4 hour compound exposure, the 96-well plates were washed three times by aspirating media with an Immuno Washer (Nunc) and each well replaced with 150 μL of α-MEM+5% (v/v) FBS+1% (v/v) P/S. The plates were left in a humidified incubator (37° C., 5% CO2) for 5 days to enable cell growth. The cells in 96-well plates were fixed 5 days after compound exposure by adding 50 μL of a 40% (w/v) trichloroacetic acid (TCA) solution so as to obtain a final TCA concentration of 10% in each well. The plates were left in the refrigerator (4° C.) for 1 hour and subsequently rinsed 3 times in tap water. Any excess water was left to drain and the cells were stained with 50 μL of 0.4% (w/v) sulforhodamine B (SRB). The plates with the SRB stain were left in the dark for 30 minutes. Excess stain was removed from the wells by rinsing the plates 4 times in water containing 1% (v/v) acetic acid. The stain was solubilised by adding 100 μL of 10 mM unbuffered Tris (pH 10.5) to each well and the plates were left in a shaker in a dark environment at room temperature for at least 1 hour. The absorbance values of the wells were determined by an ELx 808 Absorbance Microplate Reader (Bio-Tek Instruments, Winooski, Vt., USA), with the wavelength of the measurement filter set at 490 nm and a reference filter set at 450 nm. The absorbance of the reference filter was subtracted from the measurement filter to obtain a final absorbance of λ490-450 nm. The absorbance data was analysed and IC50 values determined by the KC4 microplate data analysis software (KC4™ V3.4, Bio-Tek).
Anti-proliferative IC50 assays were repeated as described above including the addition of 3 μM SN34037, a selective and potent small molecule inhibitor of AKR1C3.
Materials and methods used are as described for Example 9.

The test system of series [2] is wild-type HCT116 colon cancer cells. The series is described as follows: Anti-proliferative IC50 assay (SRB), wild-type HCT116. It counts as cell-based, human.
The test system of series [3] is H460 lung cancer xenografts. The series is described as follows: Tumour growth delay, H460 xenografts. In kind it is in vivo, NIH-III mice. Particulars: q4dx3 intraperitoneal; for tolerability of schedule: 237, 178 and 178 μmol/kg. From the text:
Specific pathogen-free female homozygous nude NIH-III (NIH-Lyst^bg Foxn1^nu Btk^xid) mice were bred by the Vernon Jansen Unit (shared vivarium, University of Auckland). Animals were housed in Techniplast microisolator cages and provided with a standard twelve hour day-night light schedule. Animals received standard rodent diet (Harlan Teklad diet 2018i) and water ad libitum. All animal studies were approved by the University of Auckland Animal Ethics Committee.
Animals weighed 18-25 g at the time of tumour inoculation. Tumours were grown subcutaneously on the right flank of mice by inoculating cells grown in tissue culture (1×10^7 cells in 100 uL serum free α-MEM). Tumour sizes were monitored three times weekly using electronic callipers and treatments were initiated once tumour diameter reached ≥7 mm.
Tumour bearing mice were randomised into the appropriate treatment groups and tumour size and body weight recorded. Test compounds were formulated on the day of the experiment and kept in foil-wrapped tubes out of direct fluorescent light. If recruitment of animals occurred over multiple days, the drug stocks were aliquoted into tubes and frozen once at −80° C. until required. Mice were treated with a single (or q4dx3 or q4dx4 or q4dx6) dose of a compound of the invention by intraperitoneal injection and thereafter tumour size and body weight was monitored every second day. Tumour volume was calculated as […] (l×w×w)/6, where l is the major axis and w is the perpendicular minor axis. Animals were culled when they had reached the appropriate survival endpoint or when body weight loss exceeded 20% of the pre-treatment value.

For series [4], the system named is HCT116 colon cancer cells engineered to over-express AKR1C3. Description: Anti-proliferative IC50 assay (SRB), HCT116 over-expressing AKR1C3. Particulars: for IC50 Ratio WT:AKR1C3: HCT116-WT vs HCT116-AKR1C3. It counts as cell-based, human.
[5] abbreviates: NCI-H460, read-out: H460-WT +AKR1C3 Inhibitor Anti-proliferative IC50.
Setting [6] is: NCI-H460, read-out: H460-WT Anti-proliferative IC50.
Where [7] appears, read: Homo sapiens, HCT-116, read-out: HCT116-WT IC50.
Setting [8] is: read-out: HCT116-WT + AKR1C3 Inhibitor IC50, with 3 μM SN34037.
Where [9] appears, read: Homo sapiens, HCT-116, read-out: HCT116-AKR1C3 IC50.
Where [10] appears, read: read-out: HCT116-AKR1C3 + AKR1C3 Inhibitor IC50, with 3 μM SN34037.

Where two headings read alike, the source gives them in different places.

One may read the IC50 as the midpoint of a concentration-inhibition curve. Regarding `CN1CCN(S(=O)(=O)c2cc([N+](=O)[O-])ccc2N(CCBr)CCOS(C)(=O)=O)CC1` [Compound 602, 2-((2-bromoethyl)(2-((4-methylpiperazin-1-yl)sulfonyl)-4-nitrophenyl)amino)ethyl methanesulfonate], the “more cytotoxic in H460 cells than SN34454” value in series [1] is 102 fold. Further, the IC50 in series [1] (setting [5]) is 4.19 µM; in series [1] (setting [6]), 0.004 µM; in series [2] (setting [7]), 4.26 µM; in series [2] (setting [8]), 4.33 µM; in series [4] (setting [9]) it was 0.001 µM; in series [4] (setting [10]) it was 1.78 µM. In series [3], the tolerability of schedule result is listed as “well-tolerated”. The “IC50 Ratio WT:AKR1C3” value in series [4] stood at 4260.
As for `CS(=O)(=O)OCCN(CCBr)c1c(C(=O)NCCO)cc([N+](=O)[O-])cc1[N+](=O)[O-]` [PR-104A, 2-((2-bromoethyl)(2-((2-hydroxyethyl)-carbamoyl)-4,6-dinitrophenyl)amino)ethyl methanesulfonate, reference compound], the IC50 worked out at 50 µM in series [1] (setting [5]); 2.7 µM in series [1] (setting [6]); 55.8 µM in series [2] (setting [7]); 70.7 µM in series [2] (setting [8]); 1.12 µM in series [4] (setting [9]); 41.8 µM in series [4] (setting [10]). The “IC50 Ratio WT:AKR1C3” value in series [4] is 50.
As for `CN1CCN(C(=O)c2cc([N+](=O)[O-])ccc2N(CCBr)CCBr)CC1` [SN34118, reference compound], the IC50 in series [1] (setting [5]) turned out to be 28.9 µM; in series [1] (setting [6]) it was 1.56 µM; in series [2] (setting [7]), 38.2 µM; in series [2] (setting [8]), 29.3 µM; in series [4] (setting [9]) it was 0.389 µM; in series [4] (setting [10]), 23.9 µM. The “IC50 Ratio WT:AKR1C3” value in series [4] is recorded as 98.
`O=[N+]([O-])c1ccc(N(CCBr)CCBr)c(S(=O)(=O)N2CCN(CC(O)CO)CC2)c1` (stereo not shown) [Compound 566, 3-(4-((2-(bis(2-bromoethyl)amino)-5-nitrophenyl)sulfonyl)piperazin-1-yl)propane-1,2-diol]: the IC50 in series [1] (setting [5]) came out at 4.03 µM; in series [1] (setting [6]) it was 0.004 µM; in series [2] (setting [7]) it was 3.34 µM; in series [2] (setting [8]), 3.93 µM; in series [4] (setting [9]), 0.001 µM; in series [4] (setting [10]), 1.72 µM. The “IC50 Ratio WT:AKR1C3” value in series [4] is 3340.
As for `CS(=O)(=O)OCCN(CCBr)c1ccc([N+](=O)[O-])cc1S(=O)(=O)N1CCN(CC(O)CO)CC1` (stereo not shown) [Compound 605, 2-((2-bromoethyl)(2-((4-(2,3-dihydroxypropyl)piperazin-1-yl)sulfonyl)-4-nitrophenyl)amino)ethyl methanesulfonate], the IC50 stood at 7.8 µM in series [1] (setting [5]); 0.025 µM in series [1] (setting [6]); 6.18 µM in series [2] (setting [7]); 6.9 µM in series [2] (setting [8]); 0.009 µM in series [4] (setting [9]); 3.54 µM in series [4] (setting [10]). For the same molecule, the “IC50 Ratio WT:AKR1C3” value in series [4] was determined as 687.
Take `CN1CCN(C(=O)c2cc([N+](=O)[O-])ccc2N(CCBr)CCOS(C)(=O)=O)CC1` [SN34454, reference compound]: the IC50 in series [1] (setting [5]) was 46 µM; in series [1] (setting [6]) it was 0.406 µM. Moreover, the tolerability of schedule result in series [3] is given as “well-tolerated”. For the same molecule, in series [3] (SN34454 237, 602 178, 641 178 μmol/kg, FIG. 2), the “anti-tumour efficacy (mean tumour volume)” value is given as “anti-tumour efficacy”.
On to `CN1CCN(S(=O)(=O)c2cc([N+](=O)[O-])ccc2N(CCOS(C)(=O)=O)CCOS(C)(=O)=O)CC1` [Compound 641, ((2-((4-methylpiperazin-1-yl)sulfonyl)-4-nitrophenyl)azanediyl)bis(ethane-2,1-diyl) dimethanesulfonate], for which the “more cytotoxic in H460 cells than SN33540” value in series [1] is 179 fold. The “more cytotoxic in H460 cells than SN34118” value in series [1] was found to be 520 fold. For the same molecule, the “more cytotoxic in H460 cells than SN34454” value in series [1] came out at 135 fold. In addition, the IC50 is 5.86 µM in series [1] (setting [5]); 0.003 µM in series [1] (setting [6]); 5.91 µM in series [2] (setting [7]); 6.4 µM in series [2] (setting [8]); 0.002 µM in series [4] (setting [9]); 3.11 µM in series [4] (setting [10]). Further, the tolerability of schedule result in series [3] is “well-tolerated”. For the same molecule, the “IC50 Ratio WT:AKR1C3” value in series [4] is 2955.

For the origin of these results see US11661404B2, “Prodrug compounds activated by AKR1C3 and their use for treating hyperproliferative disorders” (priority 2018, dated 2023).
